Like-named read-outs stand apart in the source and are kept apart here.
Key:
serum MIC-1 = assay: Phase Ib/II study with pembrolizumab: pharmacodynamics; type: in vivo, human; details: after APG-115 treatment, preliminary
Experimental: In the dose escalation study, APG-115 is combined with pembrolizumab of for the treatment of patients with metastatic solid tumor. Four dose levels of APG-115 are tested: 50, 100, 150, and 200 mg. APG-115 is administrated orally every other day (QOD) for consecutive 2 weeks of a 21-day-cycle. Pembrolizumab is administrated at 200 mg IV on day 1 of a 21-day-cycle. The primary objectives of the dose escalation study is to determine safety, tolerability, and determination of MTD and RP2D; other anti-tumor assessments (assessed per RECIST v1.1 every 6 weeks) are the secondary objectives.

[1] = tested on: tumor infiltrating cells in MC38 tumors; assay: TIL analysis by flow cytometry, p53mut MC38 tumors; type: in vivo
Experimental: The live/dead fixable dye (Invitrogen) was used to exclude dead cells. The FOXP3 kit from eBioscience was used for FOXP3 staining. Cells were washed and stained for 30 min on ice with indicated antibodies in MACS buffer or Brilliant staining buffer. Samples were than analyzed on Life Technology Attune NxT flow cytometer.

[2] = Phase I study APG-115-US-001: pharmacokinetics (LC/MS/MS, K2EDTA human plasma); type: in vivo; details: dose range of 20-300 mg
Experimental: For PK study of APG-115, APG-115 in K2EDTA human plasma was determined using an LC/MS/MS method using D5-APG-115 as the internal standard (IS). APG-115 and the IS were extracted using protein precipitation extraction from human plasma. […] MS/MS detection was set at mass transitions of m/z 642.3→246.3 for APG-115 and m/z 647.4→246.1 for D5-APG-115 (IS) in TIS positive mode.

[3] = tested on: advanced soft tissue sarcoma and other solid tumors; assay: Phase I study CTR20170975: antitumor activity; type: in vivo, human
Experimental: Patients with advanced soft tissue sarcoma (STS), adenoid cystic carcinoma (ACC) or other solid tumors in China (CTR20170975) were treated with APG-115. In dose escalation, patients received APG-115 (100-200 mg) orally QOD for first 21 days of a 28-day cycle, until disease progression. Study objectives include safety (primary endpoint), pharmacokinetics (PK), pharmacodynamics (PD), and antitumor activity assessed every 8 weeks.
This is a Phase I study (CTR20170975) is designed to assess the safety, dose-limiting toxicities (DLT), the maximum tolerated dose (MTD)/recommended phase 2 dose (RP2D), pharmacokinetics (PK), pharmacodynamics (PD) profile and anti-tumor activity of orally administered APG-115 in Chinese patients with advanced soft tissue sarcoma and other solid tumors.
Among of the 14 patients, post baseline tumor measurements were obtained in 13 patients, as one subject was just starting the treatment of Cycle 2.

[4] = Pharmacokinetic (PK) analysis in MH-22A tumor-bearing mice (LC/MS/MS); type: in vivo, mouse; details: for concentration at 4 h: oral
Experimental: The quantitative LC/MS/MS analysis was conducted using an Exion HPLC system (AB Sciex, Ontario, Canada) coupled to an API 5500 mass spectrometer (AB Sciex, Ontario, Canada) equipped with an API electrospray ionization (ESI) source. The Phenomenex Titank phenyl-Hexyl column (50 mm×2.1 mm, 5 μm particle size) was used to achieved HPLC separation. The injection volume was 2 μl and the flow rate was kept constantly at 0.5 ml/min. Chromatography was performed with mobile phase A, acetonitrile:water:formic (5:95:0.1, by volume) and B, acetonitrile:water:formic (95:5:0.1, by volume). The mass spectrometer was operated at ESI positive ion mode for APG-115 while ESI negative mode for epacadostat. The detection of the ions was performed in the multiple reaction monitoring (MRM) mode, monitoring the transition of m/z 642.0→246.1 and 271.1→172.0 for APG-115 and IS (tolbutamide) in positive mode, 435.9→338.8 and 269.2→169.2 for epacadostat and IS (tolbutamide) in negative mode, respectively. Compounds parameters, declustering potential (DP), collision energy (CE) were 51, 61 V, 80, 18 V for APG-115 and IS in positive mode, −61, −15 V and −90, −23.5 V for epacadostat and IS in negative mode, respectively.
Blood and tumor samples were collected from 5 mice/group in group-1, group-2, group-3 and group-5 4 hrs after the final dose on […]. Blood samples were collected from 5 mice/group in group-4, group-6, group-7 and group-8 4 hrs after the final dose on d29. Approximately 100 μl blood were collected in EDTA-2K tube and 50 μl plasma were collected for PK analysis. All samples were stored at −80° C. until analysis.
In efficacy study of Example 2.1, mice in vehicle, APG-115 10 mg/kg and 50 mg/kg, and epacadostat single-agent groups were euthanized on d15 as described above. To assess PK characteristics of APG-115 and epacadostat in this study, plasma and tissue samples were collected 4 h after the last dosing on d15.

MH-22A cells = assay: PD-L1 expression on tumor cells (Western blotting, flow cytometry); type: cell-based, mouse; details: 72 h
Experimental: Transcription factor p53 is involved in the regulation of PD-L1 expression (Cortez M A, 2015), which might serve as an indicator of the efficacy of anti-PD-1/PD-L1 treatment. Besides the effects on T cells, how APG-115 effects PD-L1 expression on MH-22A tumor cells was also investigated in vitro.
MH-22A cells were treated with indicated doses of APG-115 for 72 h. The expression levels of MDM2, p53, total STAT3 (t-STAT3), phosphorylated STAT3 (p-STAT3), PD-L1, and β-actin (loading control) expression were determined by Western blotting. PD-L1 expression levels which were reflected by fluorescence intensity were determined by flow cytometry.

CCN1[C@@H](C(=O)NC23CCC(C(=O)O)(CC2)CC3)[C@H](c2cccc(Cl)c2F)[C@]2(C(=O)Nc3cc(Cl)ccc32)C12CCCCC2 [APG-115]
serum MIC-1 levels (serum MIC-1): elevated
CD4+ T cells, NK cells, MDSCs, and regulatory T (Treg) cells [1]: no significant changes
AUC and Cmax versus dose [2]: generally increase dose proportionally
target lesion decrease in the PR patient ([3]; 150 mg, after 4 months withdraw, RECIST): ~64%
confirmed PR (Partial Response), patients ([3]; 150 mg, lipomatoid liposarcoma, TP53-WT and MDM2 Amp): 1
partial response, patients ([3]; 150 mg, liposarcoma with MDM2 amplification and TP53 wt (Example 5)): 1
patients with SD as the best overall response ([3]; 13 patients (Example 5)): 5
increases in systemic exposure and tissue distribution with dose ([4]; 10 vs 50 mg/kg): approximately dose proportional
pharmacokinetic interaction with anti-PD-1 antibody ([4]; mouse, in vivo): no apparent pharmacokinetic interaction
concentration at 4 h ([4]; mouse, plasma, 10 mg/kg, 10 mg/kg daily oral for 15 days, single agent, 4 h after last dosing, read-out: plasma concentration of APG-115): 0.157 µg/mL
concentration at 4 h ([4]; mouse, plasma, 10 mg/kg, 10 mg/kg in combination with anti-PD-1, read-out: plasma concentration of APG-115): 0.12 µg/mL
concentration at 4 h ([4]; mouse, plasma, 50 mg/kg, 50 mg/kg daily oral for 15 days, single agent, 4 h after last dosing, read-out: plasma concentration of APG-115): 1.23 µg/mL
concentration at 4 h ([4]; mouse, plasma, 50 mg/kg, 50 mg/kg in combination with anti-PD-1, read-out: plasma concentration of APG-115): 2.15 µg/mL
concentration at 4 h ([4]; mouse, tumor, 10 mg/kg, 10 mg/kg as single agent, read-out: APG-115 concentration in tumor tissues): 152 ng/g
concentration at 4 h ([4]; mouse, tumor, 50 mg/kg, 50 mg/kg as single agent, read-out: APG-115 concentration in tumor tissues): 1470 ng/g
expression of TP53 and pSTAT3 proteins (MH-22A cells; Western blotting): upregulated in a dose-dependent manner
surface expression of PD-L1 (MH-22A cells; flow cytometry): dose-dependent increase

— patent US12268665B2, “Combination of immunotherapies with MDM2 inhibitors” (ASCENTAGE PHARMA (SUZHOU) CO., LTD., priority 2018, dated 2025)
